Measurements published in patent US20090170880A1, “Methods and Means for the Treatment of Cancer” (priority 2007, published 2009).
Like-named read-outs stand apart in the source and are kept apart here.

Columns and labels:
[1] = Transwell experiments, recovery of temozolomide in acceptor compartment; assay type: in vitro ADME; settings: after 30 min, transport medium pH 7.4
Protocol: (§1) The parental LLC pig-kidney (PK1) cell line and sublines transduced with murine Mdr1a or human MDR1 (12) and the parental Madine Darby Canine Kidney (MDCK) and murine Bcrp1 or human BCRP transduced sublines (13) were seeded on Transwell microporous polycarbonate membrane filters (3.0 μm pore size, 24 mm diameter; Costar Corning, N.Y., USA) at a density of 1×10^6 cells per well in 2 ml of MEM medium (Invitrogen Corporation, Carlsbad, Calif.) containing 10% v/v fetal calf serum. Cells were incubated at 37° C. in 5% CO2 for three days with one medium replacement after the first day. Two hours before the start of the experiment the medium in both compartments was replaced with 2 ml of OptiMEM medium (InVitrogen Corp.). At the start of the experiment the medium in the apical or basolateral compartment was replaced with 2 ml of freshly prepared OptiMEM medium containing 40 μg/ml of temozolomide. […] Zosuquidar (LY335979, 5 μM) was always added to the medium when doing experiments with MDCK cell lines to inhibit endogenous canine P-gp. Samples of 50 μl were collected every 30 min, for up to 2 h after start of the experiment. Because temozolomide is instable in medium at 37° C., we replaced one ml of the donor compartment by a freshly prepared aliquot every 30 min. […]

[2] = molecular target: T1, murine P-gp (Mdr1a) (Mus musculus, UniProt P21447); experiment: Transwell transport of temozolomide, LLC-Mdr1a cells; assay type: in vitro ADME; settings: 40 μg/ml, LLC-Mdr1a versus LLC-PK1 monolayers
T1 construct: expressed in transfected cells; host or cells: LLC-PK1 (porcine kidney) cells transduced with murine Mdr1a
Protocol: as §1

[3] = test system: recurrent grade 3 and grade 4 gliomas, GBM; settings: cited from earlier work
[4] = molecular target: T2, human BCRP (Homo sapiens, UniProt Q9UNQ0); experiment: Transwell transport of temozolomide, MDCK-BCRP cells; assay type: in vitro ADME; settings: 40 μg/ml, MDCK-BCRP versus MDCK parent, zosuquidar 5 μM
T2 construct: expressed in transfected cells; host or cells: MDCK (canine kidney) cells transduced with human BCRP
T2 sequence (Q9UNQ0 1-655): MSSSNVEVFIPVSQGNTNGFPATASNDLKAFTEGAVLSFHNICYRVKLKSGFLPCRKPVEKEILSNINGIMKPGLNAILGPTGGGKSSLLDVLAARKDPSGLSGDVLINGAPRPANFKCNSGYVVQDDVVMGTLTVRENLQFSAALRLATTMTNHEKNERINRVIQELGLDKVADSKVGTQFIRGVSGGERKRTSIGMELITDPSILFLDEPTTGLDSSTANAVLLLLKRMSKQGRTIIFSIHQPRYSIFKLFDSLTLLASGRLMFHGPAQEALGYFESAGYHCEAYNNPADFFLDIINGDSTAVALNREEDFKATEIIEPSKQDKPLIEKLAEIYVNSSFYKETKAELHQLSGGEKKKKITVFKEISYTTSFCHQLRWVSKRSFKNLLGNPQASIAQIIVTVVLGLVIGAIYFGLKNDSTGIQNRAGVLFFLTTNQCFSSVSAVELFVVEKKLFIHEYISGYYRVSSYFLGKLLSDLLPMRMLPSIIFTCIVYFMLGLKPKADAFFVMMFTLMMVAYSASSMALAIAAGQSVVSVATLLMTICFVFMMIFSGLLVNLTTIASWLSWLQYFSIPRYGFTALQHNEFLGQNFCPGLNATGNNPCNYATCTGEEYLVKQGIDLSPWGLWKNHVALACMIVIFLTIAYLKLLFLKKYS
Protocol: as §1

T1 sequence (P21447 whole entry): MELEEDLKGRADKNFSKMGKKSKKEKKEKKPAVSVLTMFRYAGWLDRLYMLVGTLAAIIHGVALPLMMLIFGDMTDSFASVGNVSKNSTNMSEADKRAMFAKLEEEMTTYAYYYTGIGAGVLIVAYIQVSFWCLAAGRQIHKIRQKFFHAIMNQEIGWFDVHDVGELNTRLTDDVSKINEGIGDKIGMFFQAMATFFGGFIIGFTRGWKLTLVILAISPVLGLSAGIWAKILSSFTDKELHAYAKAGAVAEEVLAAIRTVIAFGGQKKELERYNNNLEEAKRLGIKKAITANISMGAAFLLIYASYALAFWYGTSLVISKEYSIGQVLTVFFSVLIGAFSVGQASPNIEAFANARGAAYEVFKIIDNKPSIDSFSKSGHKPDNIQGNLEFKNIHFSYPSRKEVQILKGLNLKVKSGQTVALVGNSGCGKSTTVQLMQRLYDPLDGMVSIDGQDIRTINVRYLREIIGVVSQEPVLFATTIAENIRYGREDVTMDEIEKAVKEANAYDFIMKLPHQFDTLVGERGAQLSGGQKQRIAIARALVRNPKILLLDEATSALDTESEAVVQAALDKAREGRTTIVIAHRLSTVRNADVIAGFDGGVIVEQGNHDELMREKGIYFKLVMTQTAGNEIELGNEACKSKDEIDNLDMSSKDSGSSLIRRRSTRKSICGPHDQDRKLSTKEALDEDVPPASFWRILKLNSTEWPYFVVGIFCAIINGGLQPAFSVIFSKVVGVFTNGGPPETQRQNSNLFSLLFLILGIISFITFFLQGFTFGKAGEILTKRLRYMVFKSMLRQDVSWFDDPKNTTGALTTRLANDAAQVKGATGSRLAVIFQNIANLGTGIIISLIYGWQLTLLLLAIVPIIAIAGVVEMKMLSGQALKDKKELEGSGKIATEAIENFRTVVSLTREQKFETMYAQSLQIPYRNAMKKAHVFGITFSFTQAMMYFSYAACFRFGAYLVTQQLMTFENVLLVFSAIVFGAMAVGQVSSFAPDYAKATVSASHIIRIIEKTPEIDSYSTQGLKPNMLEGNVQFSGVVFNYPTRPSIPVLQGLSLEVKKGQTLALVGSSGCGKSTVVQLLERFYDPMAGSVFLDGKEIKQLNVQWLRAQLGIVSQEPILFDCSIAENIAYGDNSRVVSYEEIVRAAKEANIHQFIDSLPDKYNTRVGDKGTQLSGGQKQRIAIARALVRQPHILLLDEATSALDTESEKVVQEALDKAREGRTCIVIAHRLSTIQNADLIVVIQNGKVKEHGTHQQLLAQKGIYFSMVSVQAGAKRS

Cn1nnc2c(C(N)=O)ncn2c1=O [temozolomide, 8-carbamoyl-3-methyl-[3H]-imidazo[5,1-d]-1,2,3,5-tetrazin-4-one]
dose recovered in the acceptor compartment [1]: at least 5%
transport of temozolomide by murine P-gp [2]: very limited if any evidence for transport
transport of temozolomide by murine P-gp ([2]; listed as Temozolomide): not readily detected
progression free survival compared to procarbazine ([3]; patients): significantly longer
survival, radiotherapy with concomitant and adjuvant temozolomide versus radiotherapy alone ([3]; phase III trial): significant survival benefit
objective response rate ([3]; recurrent grade 3 gliomas): 35%
objective response rate ([3]; recurrent grade 4 gliomas): 8%
transport of temozolomide by human BCRP [4]: more moderate transport
transport of temozolomide by human BCRP ([4]; listed as Temozolomide): less
